Experimental data: the NIST ThermoML archive (doi:10.1021/je0340755)

Assay: xn = mol fraction of the nth substance listed
Settings: 101.3 kPa, Liquid; for viscosity: Capillary tube (Ostwald / Ubbelohde) method

CC(O)CO (stereo not given) [1,2-propanediol] + O
Settings | mass density, 318.15 K [kg/m3] | mass density, 328.15 K [kg/m3] | mass density, 338.15 K [kg/m3] | speed of sound, 318.15 K [m/s] | speed of sound, 328.15 K [m/s] | speed of sound, 338.15 K [m/s] | viscosity, 328.15 K [mPa·s] | viscosity, 338.15 K [mPa·s]
x2 = 0.044 | – | 1010.15 | 1002.38 | – | 1414.3 | 1395.8 | 9.223 | 6.72
x2 = 0.0987 | – | 1010.89 | 1003.08 | – | 1421.8 | 1403.2 | 8.612 | 6.302
x2 = 0.1484 | – | 1011.57 | 1003.72 | – | 1426.6 | 1408.2 | 8.046 | 5.915
x2 = 0.2498 | – | 1012.99 | 1005.08 | – | 1440.5 | 1422.2 | 6.905 | 5.133
x2 = 0.3494 | – | 1014.43 | 1006.46 | – | 1460.2 | 1441.9 | 5.842 | 4.398
x2 = 0.4494 | – | 1015.82 | 1007.81 | – | 1486.4 | 1468 | 4.844 | 3.698
x2 = 0.5029 | – | 1016.47 | 1008.45 | – | 1504.2 | 1485.6 | 4.335 | 3.337
x2 = 0.5499 | – | 1016.94 | 1008.91 | 1555.5 | 1522.6 | 1503.8 | 3.901 | 3.027
x2 = 0.5597 | 1024.96 | 1017.01 | 1008.99 | 1559.6 | 1526.7 | 1507.9 | 3.811 | 2.961
x2 = 0.6501 | 1025.1 | 1017.26 | 1009.3 | 1599.9 | 1568.3 | 1549 | 3.002 | 2.378
x2 = 0.7499 | 1023.4 | 1015.84 | 1008.09 | 1637.6 | 1609.2 | 1590.8 | 2.147 | 1.75
x2 = 0.85 | 1017.63 | 1010.71 | 1003.47 | 1637.9 | 1617.9 | 1604.3 | 1.36 | 1.156
x2 = 0.9003 | 1011.96 | 1005.57 | 998.8 | 1615 | 1602.5 | 1593.6 | 1.012 | 0.882
x2 = 0.9115 | 1010.33 | 1004.09 | 997.45 | 1607.7 | 1597.2 | 1589.7 | 0.942 | 0.825
x2 = 0.9154 | 1009.72 | 1003.54 | 996.94 | 1605 | 1595.2 | 1588.2 | 0.917 | 0.806
x2 = 0.927 | 1007.79 | 1001.78 | 995.33 | 1596.5 | 1589 | 1583.5 | 0.848 | 0.749
x2 = 0.9367 | 1006.03 | 1000.17 | 993.86 | 1589 | 1583.4 | 1579.2 | 0.793 | 0.702
x2 = 0.9504 | 1003.28 | 997.67 | 991.56 | 1577.7 | 1575.1 | 1572.9 | 0.72 | 0.639
x2 = 0.9551 | 1002.26 | 996.73 | 990.71 | 1573.6 | 1572.2 | 1570.7 | 0.695 | 0.618
x2 = 0.96 | 1001.16 | 995.72 | 989.78 | 1569.4 | 1569.1 | 1568.4 | 0.672 | 0.597
x2 = 0.9696 | 998.86 | 993.62 | 987.84 | 1561 | 1563.1 | 1563.8 | 0.627 | 0.556
x2 = 0.9797 | 996.22 | 991.21 | 985.63 | 1552.2 | 1556.8 | 1559.2 | 0.582 | 0.515
x2 = 0.9902 | 993.24 | 988.47 | 983.11 | 1543.1 | 1550.5 | 1554.7 | 0.539 | 0.474
x2 = 0.9923 | 992.61 | 987.9 | 982.58 | 1541.4 | 1549.3 | 1553.9 | 0.531 | 0.466
x2 = 0.9948 | 991.85 | 987.19 | 981.93 | 1539.3 | 1547.8 | 1552.9 | 0.521 | 0.457
